“Also recorded” adds a separate entry of the source.
Key:
[1] = tested on: C57BL/6 mice with cerulein-induced CP; assay: Chronic pancreatitis (CP) animal model, fibronectin IHC; assay type: in vivo; settings: 0.5 mg/kg daily oral gavage, 3 weeks
Procedure: In order to evaluate the anti-fibrotic effect of these new compounds as a proof-of-concept, the compounds were tested in a preclinical animal model of CP. CP was induced in mice using the well-established model of repeated cerulean (CR) injections (Lerch and Gorelick 2013, Gastroenterology 144:1180; Aghdassi et al. 2011, Fibrogenesis Tissue Repair 4:26). […] After four weeks, the pancreata were processed and stained for fibronectin, which is a major component of the ECM. […] ImageJ analysis of the slides quantified the significant decrease in fibrosis (p<0.001) (FIG. 4E).
Chronic pancreatitis (CP) animal model. Animal experiments were conducted under an Institutional Animal Care and Use Committee-approved protocol. CP was induced in C57BL/6 mice using supraoptimal pancreatic stimulation with cerulein (CR), a cholecystokinin analogue (Bachem, Torrance, Calif.). CP (50 μg CR/kg mouse weight) was administered via intraperitoneal route hourly for 5 h for 3 d/week for a total of 4 weeks. Control mice received phosphate buffered saline (PBS) injections following the same schedule. […] At the end of Week 4, the mice were anesthestized with isoflurane and sacrificed per protocol. The pancreata were quickly harvested and processed.
Immunohistochemistry (IHC) and image analysis. Pancreata were formalin-fixed and paraffin-embedded. Prior to staining, sections (5 μm) were deparaffinized with xylene, dehydrated with ethanol, and subjected to heat-mediated antigen retrieval (DAKO, Carpinteria, Calif.) to optimize antigen immunoreactivity. Fibronectin antibody (1:600; Santa Cruz Biotechnology, Dallas, Tex.), and biotinylated anti-goat IgG (1:400; Vector Laboratories Inc., Burlingame, Calif.) were used. […] The percent area of brown fibronectin staining was quantified using the Image Processing and Analysis in Java (ImageJ) 1.46r software (NIH, Bethesda, Md.) and a color deconvolution plug-in (Ruifrok and Johnston, Anal Quant Cytol Histol 2001, 23:291; Schneider et al., Nat Methods 2012, 9:671).

[2] = target: T1, human CBS (cystathionine-β-synthase) (Homo sapiens, UniProt P35520); assay: H2S production by recombinant CBS; assay type: biochemical; settings: 100 μM compound; H2S production as % of control (100%)
T1 construct: GST (N); made in house; host or cells: E. coli BL21(DE3) Codon Plus
T1 sequence (P35520 1-551): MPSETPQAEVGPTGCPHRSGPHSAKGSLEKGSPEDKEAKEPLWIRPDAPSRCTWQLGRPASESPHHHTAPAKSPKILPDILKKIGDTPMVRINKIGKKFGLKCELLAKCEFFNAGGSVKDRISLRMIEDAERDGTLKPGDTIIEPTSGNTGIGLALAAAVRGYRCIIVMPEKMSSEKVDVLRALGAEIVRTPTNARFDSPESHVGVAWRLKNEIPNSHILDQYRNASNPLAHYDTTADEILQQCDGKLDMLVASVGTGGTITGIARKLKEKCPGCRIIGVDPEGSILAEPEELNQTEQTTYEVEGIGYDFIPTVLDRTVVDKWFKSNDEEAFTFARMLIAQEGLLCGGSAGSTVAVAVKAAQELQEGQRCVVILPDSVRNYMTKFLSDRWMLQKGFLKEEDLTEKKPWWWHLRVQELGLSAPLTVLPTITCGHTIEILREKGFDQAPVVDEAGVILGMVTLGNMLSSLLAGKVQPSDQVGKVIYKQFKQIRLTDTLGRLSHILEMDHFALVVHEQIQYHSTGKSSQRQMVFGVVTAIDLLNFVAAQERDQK
Procedure: Recombinant human CBS protein expression and purification. The expression and purification of human CBS was performed as described previously (Asimakopoulou et al. 2013, Br J Pharmacol. 169(4):922-32). Briefly, E. Coli BL21(DE3) Codon Plus cells (Stratagene, La Jolla, Calif., USA) containing the expression vector pGEX-Kg/GST-CBS were grown at 37° C. and 180 rpm in LuriaBertani (LB) broth medium containing 100 μg/ml ampicillin to an absorption of 0.6-0.8 at 600 nm. Protein expression was induced by addition of 0.1 mM IPTG (isopropyl-b-D-thiogalactopyranoside) and cells were further incubated at 30° C. overnight. The bacteria were harvested and sonicated in lysis buffer PBS (140 mM NaCl, 2.7 mM KCl, 10 mM Na2HPO4, 1.8 mM KH2PO4, pH 7.8) containing a protease inhibitors cocktail (Sigma). The protein lysate was loaded onto a GSTrap FF 1 ml affinity column (Amersham Biosciences) and the GST-CBS recombinant protein was eluted with the elution buffer (50 mM Tris-HCl, 10 mM reduced glutathione, pH 8.0) and then dialyzed and concentrated in 10 mM sodium phosphate buffer (pH 8.2) and DTT (1 mM).
Measurement of H2S production by recombinant CBS. The measurement of H2S production by recombinant CBS enzyme was performed as described (Asimakopoulou et al. 2013, Br J Pharmacol. 169(4):922-32). Briefly, each test consisted of a 100 μl reaction mixture in 50 mM sodium phosphate buffer pH 8.2 containing 1 μg of the purified human CBS enzyme, 0.01 mM pyridoxal-5′-phosphate (PLP), 10 mM L-cysteine and 0.5 mM homocysteine. […] The reaction was initiated by transferring the Eppendorf tubes from ice to a 37° C. shaking water bath. After 60 minutes of incubation at 37° C., the reaction was terminated by adding 1% ZnAc followed by 10% trichloroacetic acid. Subsequently, N,N-dimethylphenylendiamine sulfate (20 mM in 7.2 M HCl) and FeCl3 (30 mM in 1.2 M HCl) were added and the optical absorbance of the solutions was measured at 650 nm.

activity at 100 µM [2] [%] | SMILES | Pancreatic fibrosis in CP model (fibronectin stain), result in words [1]
79 | COc1cc(OC)c2c(=O)cc(-c3ccc(OCC(O)CN4CCCCC4)cc3)oc2c1 (stereo not drawn) [Compound 24, 2-(4-(2-Hydroxy-3-piperidin-1-yl-propoxy)phenyl)-5,7-dimethoxy-chromen-4-one] | as efficacious as apigenin in reducing pancreatic fibrosis; also recorded: significantly decreased the stromal fibrosis of CP; also recorded: significantly reduced the fibrotic response; also recorded: significant efficacy to reduce pancreatic fibrosis
119 | COc1cc(OC)c2c(=O)cc(-c3ccc(OCC4CO4)cc3)oc2c1 (stereo not drawn) [Compound 23, 5,7-Dimethoxy-2-(4-oxiranylmethoxyphenyl)-chromen-4-one] | as efficacious as apigenin in reducing pancreatic fibrosis; also recorded: significantly decreased the stromal fibrosis of CP; also recorded: significantly reduced the fibrotic response; also recorded: significant efficacy to reduce pancreatic fibrosis

SMILES | activity at 100 µM [2] [%] | Pancreatic fibrosis in CP model (fibronectin stain), result in words [1]
O=c1cc(-c2ccc(O)cc2)oc2cc(O)cc(O)c12 [Apigenin, 4′,5,7-trihydroxyflavone, reference compound] | 80.8 | significantly decreased the stromal fibrosis of CP; also recorded: significantly reduced the fibrotic response; also recorded: significant efficacy to reduce pancreatic fibrosis

From patent US9868715B2 (THE BOARD OF REGENTS OF THE UNIVERSITY OF TEXAS SYSTEMS, priority 2014, dated 2018)
